From PMC10945555, “Improving Activity of New Arylurea Agents against Multidrug-Resistant and Biofilm-Producing Staphylococcus epidermidis” (ACS Medicinal Chemistry Letters, 2024)
Values after ≈ are worked out from the molar mass of the structure shown. Like-named read-outs stand apart in the source and are kept apart here.

How the values were obtained:
[1] = tested on: Staphylococcus epidermidis ATCC 12228; assay: MIC, broth microdilution, MSSE reference strain; type: cell-based
Description: (§1) These strains included susceptible, multidrug-resistant, and biofilm-producing strains of S. epidermidis and S. aureus (MSSE, MDR/BPSE, and MDR/BPSA, respectively). The cornerstone antibiotic linezolid served as a positive control (Table 1). The impact of structural modifications at the aryloxy fragment and the aromatic moiety bound to the propyl linker on the inhibitory activity was initially investigated. […] Further optimization focused on evaluating the impact of the type of substituent and its position on the arylsulfonamide fragment’s activity.
(§2) 2 Biological assay protocols
(§3) Microbiological tests were carried out under aseptic conditions in a laminar chamber of the 2nd […]
(§4) (BioTectum 1.2, Alchem Poland). The assessment of antimicrobial activity was carried out for final compounds in the form of free bases, soluble in DMSO (Merck, Germany), at the initial […]
(§5) concentration of 1 mg/mL. […]
(§6) were provided by Cayman Chemical, USA.
(§7) The activity of all newly synthesized compounds was tested in vitro on a panel of selected reference strains from the American Type Culture Collection (ATCC) of Gram-positive […]
(§8) 2.2 Effect of evaluated compounds on planktonic cells
(§9) The susceptibility of three reference bacterial strains (Staphylococcus epidermidis ATCC […]
(§10) Table S1) and 81 clinical MDR S. epidermidis (Table S2) to the tested compounds was assessed by determining the MIC value (Minimal Inhibitory Concentration) by microdilution in a liquid medium in 96-well flat-bottom cell culture plates (Nest Biotechnology Scientific, USA). The antibacterial properties of the compo unds were tested in the concentration range from 50 µg/mL to 0.1 µg/mL by making a series of double dilutions of the compound in liquid Mueller -Hinton II Broth Cation Adjusted (MHB II, BBL TM, USA) according to the European Committee on […]
(§11) Antimicrobial Susceptibility Testing guidelines (EUCAST).2,3 The determinations were performed twice. The MIC50 and MIC90 values were determined for each of the tested

[2] = tested on: Staphylococcus epidermidis ATCC 35984; assay: MIC, broth microdilution, MDR/BPSE reference strain; type: cell-based; conditions: for MIC: Staphylococcus epidermidis, ATCC35984, read-out: MIC MDR/BPSE, Staphylococcus epidermidis ATCC 35984
Description: as §1, §2, §3, §4, §5, §6, §7, §8, §9, §10, §11

[3] = tested on: Staphylococcus aureus ATCC BAA-976; assay: MIC, broth microdilution, MDR/BPSA reference strain; type: cell-based
Description: as §1, §2, §3, §4, §5, §6, §7, §8, §9, §10, §11

[4] = tested on: Acinetobacter baumannii ATCC 19606; assay: MIC, Gram-negative reference strain; type: cell-based; conditions: Acinetobacter baumannii, ATCC19606
Procedure: as §2, §3, §4, §5, §6, §7, §8, §9, §10, §11

[5] = tested on: Escherichia coli ATCC 25922; assay: MIC, Gram-negative reference strain; type: cell-based; conditions: Escherichia coli, ATCC25922
Procedure: as §2, §3, §4, §5, §6, §7, §8, §9, §10, §11

[6] = tested on: Pseudomonas aeruginosa ATCC 27853; assay: MIC, Gram-negative reference strain; type: cell-based; conditions: Pseudomonas aeruginosa, ATCC27853, read-out: MIC P. aeruginosa
Procedure: as §2, §3, §4, §5, §6, §7, §8, §9, §10, §11

Gram-negative bacteria = assay: MIC, tested Gram-negative bacteria (hit screening); type: cell-based
Description: (§12) Despite numerous efforts to ensure sterility and encourage the prudent use of currently available antibiotics, morbidity rates persist at high levels. These findings underscore the pressing need for the development of a novel class of potential antimicrobial agents targeting multidrug-resistant and biofilm-forming S. epidermidis. […] Herein we present the discovery of new aryloxy[1-(thien-2-yl)propyl]piperidines with improved antibacterial activity compared to compound I, evaluated against a spectrum of clinical S. epidermidis isolates (81 strains), including multidrug-resistant and biofilm-forming strains. We also determined their bacteriostatic/bactericidal properties and conducted a real-time analysis of bacterial growth. Finally, we evaluated the ability of the most promising compound, 25, in terms of its activity and safety over mammalian cell lines, to disrupt the staphylococcal cell membranes of clinical S. epidermidis.

[7] = tested on: reference susceptible and multidrug-resistant S. epidermidis and S. aureus strains; assay: MIC, reference S. epidermidis and S. aureus strains (hit screening); type: cell-based
Description: as §12

H9c2 cells = assay: Cytotoxicity, MTT assay, cardiomyocytes; type: cell-based; conditions: Rattus norvegicus, 24 h, n = 3
Procedure: (§13) The following cell models were used in the research: rat cardiomyocytes (H9c2 line) and human skin fibroblasts (BJ line). All cell lines used in the work are commercially available and were purchased from ATCC banks (the American Type Culture Collection, Manassas, VI, USA). Cell cultures were carried out in an incubator under standard conditions (37°C, 5% CO 2).
(§14) Culture media (Dulbecco's Modified Eagle's Medium -DMEM (H9c2) and Eagle's Minimum Essential Medium-EMEM (BJ) were supplemented with 10% bovine serum and a 1% mixture of penicillin and streptomycin antibiotics. […]
(§15) doxorubicin (a cytotoxic drug) were used as reference and positive control, respectively. […]
(§16) incubated with studied compound in appropriate concentration for next 24 h. Then MTT solution (5 mg/mL) was transferred into culture medium of incubated cells. After 3 h, once dark crystals of formazan were produced in cells, medium was aspirated and 100 μ L of DMSO was added to dissolve formazan. Absorbance of DMSO solution was read on a multiwell plate reader (Spectra Max iD3, Molecular Devices) at 570 nm. In order to determine viability, absorbance of experimental wells was divided by absorbance of contro l well (not treated) and multiplied by 100 (%). Three separate experiments were performed. IC 50 was calculated using non-linear regression method in OriginPro software. […]

BJ cells = assay: Cytotoxicity, MTT assay, skin fibroblasts; type: cell-based, human; conditions: Homo sapiens, MTT, 24 h, n = 3
Procedure: as §13, §14, §15
as §16, with “solution” for “incubated with studied compound in appropriate concentration for next 24 h. Then MTT solution”

[8] = Staphylococcus aureus, ATCCBAA976, read-out: MIC MDR/BPSA
[9] = ATCC12228, Staphylococcus epidermidis ATCC 12228, read-out: MIC MSSE
[10] = ATCCBAA976, Staphylococcus aureus ATCC BAA-976, read-out: MIC MDR/BPSA

Row | SMILES | MIC [2] [µg/mL] | MIC [3, 8] [µg/mL] | MIC [1, 9] [µg/mL] | MIC [3, 10] [µg/mL] | other results
1 | O=S(=O)(NC1CCN(CCC(Oc2cccc(C(F)(F)F)c2)c2cccs2)CC1)c1cccc(Cl)c1 (stereo not shown) [Compound 13] | 3.12 (≈ 5.59 µM) | 3.12 (≈ 5.59 µM) |  |  | MIC ([1]; ATCC12228, read-out: MIC MSSE): 3.12 µg/mL (≈ 5.59 µM)
2 | O=S(=O)(NC1CCN(CCC(Oc2ccc(C(F)(F)F)cc2)c2cccs2)CC1)c1ccccc1 (stereo not shown) [Compound 15] | 6.25 (≈ 11.9 µM) |  | 12.5 (≈ 23.8 µM) | 12.5 (≈ 23.8 µM) | 
3 | O=S(=O)(NC1CCN(CCC(Oc2ccc(C(F)(F)F)cc2)c2cccs2)CC1)c1ccccc1Cl (stereo not shown) [Compound 16] | 6.25 (≈ 11.2 µM) |  | 50 (≈ 89.4 µM) | 50 (≈ 89.4 µM) | 
4 | O=S(=O)(NC1CCN(CCC(Oc2ccc(C(F)(F)F)cc2)c2cccs2)CC1)c1cccc(F)c1 (stereo not shown) [Compound 17] | 6.25 (≈ 11.5 µM) | 6.25 (≈ 11.5 µM) | 12.5 (≈ 23 µM) |  | 
5 | Cc1cccc(S(=O)(=O)NC2CCN(CCC(Oc3ccc(C(F)(F)F)cc3)c3cccs3)CC2)c1 (stereo not shown) [Compound 19] | 0.2 (≈ 0.371 µM) |  | 50 (≈ 92.8 µM) | 50 (≈ 92.8 µM) | 
6 | COc1cccc(S(=O)(=O)NC2CCN(CCC(Oc3ccc(C(F)(F)F)cc3)c3cccs3)CC2)c1 (stereo not shown) [Compound 20] | 0.1 (≈ 0.18 µM) |  | 50 (≈ 90.1 µM) | 25 (≈ 45.1 µM) | 
7 | O=S(=O)(NC1CCN(CCC(Oc2ccc(C(F)(F)F)cc2)c2cccs2)CC1)c1ccc(F)cc1 (stereo not shown) [Compound 22] | 1.6 (≈ 2.95 µM) |  | 6.25 (≈ 11.5 µM) | 6.25 (≈ 11.5 µM) | 
8 | O=S(=O)(NC1CCN(CCC(Oc2ccc(C(F)(F)F)cc2)c2cccs2)CC1)c1ccc(Cl)cc1 (stereo not shown) [Compound 23] | 0.2 (≈ 0.358 µM) |  | 12.5 (≈ 22.4 µM) | 6.25 (≈ 11.2 µM) | 
9 | O=C(Nc1ccccc1)NC1CCN(CCC(Oc2ccc(C(F)(F)F)cc2)c2cccs2)CC1 (stereo not shown) [Compound 24] | 6.25 (≈ 12.4 µM) | 6.25 (≈ 12.4 µM) |  |  | MIC ([1]; ATCC12228, read-out: MIC MSSE): 6.25 µg/mL (≈ 12.4 µM)
10 | O=C(Nc1ccc(F)cc1)NC1CCN(CCC(Oc2ccc(C(F)(F)F)cc2)c2cccs2)CC1 (stereo not shown) [Compound 26] | ≥ 6.25 |  | 50 (≈ 95.9 µM) |  | 
11 | O=C(Nc1ccc(Cl)cc1)NC1CCN(CCC(Oc2ccc(C(F)(F)F)cc2)c2cccs2)CC1 (stereo not shown) [Compound 27] | ≥ 6.25 |  | 50 (≈ 92.9 µM) |  | 
12 | O=S(=O)(NC1CCN(CCC(Oc2cccc(C(F)(F)F)c2)c2ccccc2)CC1)c1cccc(Cl)c1 (stereo not shown) [I] | 3.12 (≈ 5.65 µM) | 3.12 (≈ 5.65 µM) |  |  | MIC ([1]; ATCC12228, read-out: MIC MSSE): 3.12 µg/mL (≈ 5.65 µM); MIC MDR/BPSE ([2]; Staphylococcus epidermidis ATCC 35984): 6.25 µg/mL (≈ 11.3 µM); MIC [4]: 50 µg/mL (≈ 90.4 µM); MIC [5]: 50 µg/mL (≈ 90.4 µM); MIC [6]: 50 µg/mL (≈ 90.4 µM); activity towards Gram-negative bacteria (Gram-negative bacteria): Not active; MIC (Gram-negative bacteria; tested Gram-negative bacteria): ≥ 25 µg/mL; MIC [7]: 3.12 to 6.25 µg/mL (≈ 5.65 to 11.3 µM)
13 | COc1cccc2c1C(=O)c1c(O)c3c(c(O)c1C2=O)C[C@@](O)(C(=O)CO)C[C@@H]3O[C@H]1C[C@H](N)[C@H](O)[C@H](C)O1 [doxorubicin, reference compound] |  |  |  |  | IC50 (H9c2 cells): 0.39 µg/mL (≈ 0.718 µM); IC50 (BJ cells): 0.39 µg/mL (≈ 0.718 µM)
